Assay results: patent US7550425B2, “Diuretic peptide conjugates” (Zealand Pharma A/S, priority 2000, dated 2009)

Tests used:
[1] = In vitro stability in heparin stabilised mouse plasma; format: in vitro ADME; conditions: heparinised mouse plasma, 37° C., read-out: half-life t½ of degradation
Experimental: Degradation of peptides is almost exclusively seen in the presence of enzymes, e.g. in the bloodstream. An important feature of a putative drug is whether it is quickly degraded in vivo or whether it is able to conduct its effects over a longer period of time. To be able to examine the stability of the peptide conjugates of the present invention degradation was tested in heparin stabilised mouse plasma (obtained from Harlan Seralab, UK).
The stability studies were run in triplicate. 100 μL of a 1 mg/mL solution of the test compound (peptide conjugate) was added to an Eppendorf tube, containing 900 μL plasma, incubated at 37° C. Immediately after addition, a sample of 100 μL was removed and added to an Eppendorf tube, containing 10 μL of extraction solution (50% TFA (trifluoroacetic acid) in MeCN, v/v). This sample constitutes t=0. […] The samples are centrifuged at 20,000×g, and the supernatant was transferred to vials and analysed by high-performance liquid chromatography (HPLC).
The analysis was performed on a HP1100 HPLC with a quaternary pump. The column used was a Vydac 201SP5215, and the apparatus comprises an autosampler, a column oven, a variable UV detector and a fluorescence detector. […] These values were transferred to Microsoft Excel, where half-lives (t½) and rate constant (kobs) for Ac-RYYRWK-NH2 (SEQ ID NO: 1) and Compound 1 were determined by fitting to the equation.

[2] = tested on: chronically instrumented rats; experiment: Twelve-hour i.v. infusion with servo-controlled volume replacement (acute tachyphylaxis); format: in vivo, rat
Experimental: To evaluate whether acute tachyphylaxis develops during i.v. treatment with Compound 1, an additional series of experiments were performed. Chronically instrumented rats were infused with vehicle (150 mM glucose) or Compound 1 (1 nmol/kg/min) for twelve hours while water balance was maintained using a computer-driven, servo-controlled i.v. volume replacement system^[2]. Acute tachyphylaxis has been observed during repeated i.v. dosing of the vasopressin antagonist SKF 101926 in conscious dogs^[12] and tolerance during chronic treatment has been reported for the selective V2-receptor antagonist OPC-31260 ^[13].

cirrhotic rats = experiment: Renal responses in rats with liver cirrhosis induced by common bile duct ligation and sham-operated controls; format: in vivo, rat; conditions: i.v. bolus 65 nmol/kg
Experimental: Rats with liver cirrhosis induced by common bile duct ligation develop avid sodium and water retention and ascites within 2-4 weeks. The disturbed sodium and water balance in cirrhotic rats is in agreement with the pivotal clinical findings of edema and ascites in patients with liver cirrhosis. To examine the efficacy of Compound 1 in an experimental model of an edema-forming state, the diuretic response to an acute i.v. bolus injection of Compound 1 (65 nmol/kg) was evaluated in rats with liver cirrhosis induced by common bile duct ligation 4 weeks earlier. Prior to the experiments, rats were instrumented with chronic catheters in the urinary bladder, and in the femoral vein and artery. Renal responses to Compound 1 were compared with responses in sham-operated control rats. […] Relative changes in urine flow rate, sodium and potassium excretion after i.v. administration of 65 nmol/kg in sham-operated control animals are summarized in FIG. 7.
Changes in urine flow rate, free water clearance, fractional sodium excretion and fractional potassium excretion after i.v. administration of 65 nmol/kg in sham-operated control and cirrhotic animals are summarized in FIG. 8.

hORL1 receptor = hORL1 receptor (Homo sapiens, UniProt P41146); experiment: Inhibition of forskoline-induced cAMP formation in HEK293 cells expressing human ORL1; format: cell-based; design: expressed in transfected cells; host or cells: HEK293; conditions: transfected HEK293 cells
Sequence of hORL1 receptor (P41146 whole entry): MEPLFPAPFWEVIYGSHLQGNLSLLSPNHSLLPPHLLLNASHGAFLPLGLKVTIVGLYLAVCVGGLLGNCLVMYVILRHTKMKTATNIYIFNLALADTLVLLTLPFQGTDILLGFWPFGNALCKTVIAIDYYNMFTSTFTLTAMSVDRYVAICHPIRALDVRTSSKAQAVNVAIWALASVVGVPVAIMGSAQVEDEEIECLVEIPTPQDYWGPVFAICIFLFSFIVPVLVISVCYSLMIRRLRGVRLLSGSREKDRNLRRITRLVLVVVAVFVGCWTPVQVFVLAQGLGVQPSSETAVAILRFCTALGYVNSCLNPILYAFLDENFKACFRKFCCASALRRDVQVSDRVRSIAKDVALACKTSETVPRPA

[3] = cirrhotic and sham-operated rats

Ac-RYYRWKKKKKKK-NH2 [Compound 1, Ac-RYYRWKKKKKKK-NH2]
half-life at 0.1 mg/mL [1]: 5.97 h
tubular water reabsorption and haemodynamics ([2]; i.v. infusion 1 nmol/kg/min): inhibited tubular water reabsorption without concomitant changes in arterial blood pressure, heart rate, renal blood flow, glomerular filtration rate or proximal tubular reabsorption
duration of aquaretic response ([2]; i.v. infusion 1 nmol/kg/min for twelve hours): sustained aquaretic response lasting the entire 12-hour infusion period
acute tachyphylaxis ([2]; i.v. infusion 1 nmol/kg/min, 12 hours): no acute tachyphylaxis develops within the first 12 hours of treatment
magnitude of aquaretic response versus OPC-31260 ([2]; i.v. infusion 1 nmol/kg/min, FIG. 9): aquaretic response of similar magnitude to the response seen with maximal doses of the selective vasopressin type-2 receptor antagonist OPC-31260
renal responses, cirrhotic versus control rats (cirrhotic rats): renal responses were similar in cirrhotic and control rats
fractional excretion of sodium and potassium (cirrhotic rats; FIG. 8): decrease in fractional excretion of sodium and potassium
urine flow rate (cirrhotic rats; FIG. 8): marked increase in urine flow rate
glomerular filtration rate (cirrhotic rats; [3]): absence of changes in the glomerular filtration rate
urinary excretion of sodium and potassium (cirrhotic rats; [3]): decrease in urinary excretion of sodium and potassium
relative maximum relative to nociceptin (hORL1 receptor): 92%
